We go through 11 molecules from PubChem BioAssay (NCI).

Each structure is given as a SMILES string.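 The compound was tested at five concentrations on cells cultured in 96-well plates, with a 48-hour exposure period. GI50 is the concentration that inhibits growth by half. TGI: concentration producing complete growth inhibition.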 Bounds are passed on as bounds.

Some test systems named below: RXF 393 renal; NCI-H460 lung; M14 melanoma; SW-620 colon; SK-MEL-28 melanoma; SF-295 CNS; KM12 colon; NCI/ADR-RES ovarian; NCI-H522 lung; U251 CNS.
Test in all cases: NCI tumour cell line growth inhibition, 48 h

As for `OC(COc1ccc(Cl)cc1Cl)CN1CCCC1` (stereo not given), the TGI with RXF 393 renal is over 100 µM; with NCI-H460 lung, over 100 µM; in the experiment with M14 melanoma it was 41.1 µM; with SW-620 colon it was over 100 µM; in the experiment on SK-MEL-28 melanoma it was over 100 µM; in the experiment on SF-295 CNS, over 100 µM. In addition, the TGI with KM12 colon, with NCI/ADR-RES ovarian, in the experiment with NCI-H522 lung and in the experiment with U251 CNS was over 100 µM each time.

Turning to `COc1cc(Nc2ncc3c(n2)-c2ccc(Cl)cc2C(c2c(F)cccc2OC)=NC3)ccc1C(=O)O`, the GI50 is 1.59 µM in the experiment on RXF 393 renal; 0.0412 µM in the experiment on NCI-H460 lung; 13.6 µM with M14 melanoma; 1.74 µM with SW-620 colon; 13.2 µM in the experiment with SK-MEL-28 melanoma; 0.0719 µM in the experiment with SF-295 CNS. The GI50 was 0.26 µM in the experiment on KM12 colon, 1.38 µM with NCI/ADR-RES ovarian, 0.501 µM with NCI-H522 lung and 2.74 µM in the experiment on U251 CNS. For the same molecule, the TGI was 13.1 µM with RXF 393 renal; over 83.6 µM in the experiment with NCI-H460 lung; 42.8 µM in the experiment on M14 melanoma; over 100 µM in the experiment with SW-620 colon; over 92 µM in the experiment on SK-MEL-28 melanoma; over 64.1 µM in the experiment with SF-295 CNS. Also, the TGI in the experiment with KM12 colon was over 92.9 µM; with NCI/ADR-RES ovarian, over 100 µM; with NCI-H522 lung, 3.88 µM; in the experiment with U251 CNS, 33.3 µM.

Regarding `Cc1sc2nc(-c3ccccn3)c(/C=N/N=C(N)N)n2c1C`, the GI50 is 5.56 µM in the experiment with RXF 393 renal; 13.6 µM in the experiment with NCI-H460 lung; 7.28 µM in the experiment with M14 melanoma; 4.5 µM in the experiment with SW-620 colon; 4 µM in the experiment with SK-MEL-28 melanoma; 8.77 µM in the experiment on SF-295 CNS. Further, the GI50 with KM12 colon was 7.85 µM; in the experiment on NCI/ADR-RES ovarian, over 21.9 µM; with NCI-H522 lung, 5.18 µM; in the experiment on U251 CNS it was 9.3 µM. The TGI in the experiment on RXF 393 renal was found to be 16.1 µM; in the experiment on NCI-H460 lung, 36.2 µM; in the experiment on M14 melanoma, 12.1 µM; in the experiment with SW-620 colon, 13.5 µM; in the experiment on SK-MEL-28 melanoma it was 9.13 µM; in the experiment with SF-295 CNS it was 16.9 µM. The TGI in the experiment with KM12 colon is 15.6 µM; in the experiment on NCI/ADR-RES ovarian, over 40 µM; in the experiment with NCI-H522 lung, 13.3 µM; with U251 CNS, 21 µM.

In the case of `COc1ccc(C(=O)Nc2ncc(Cc3ccc(F)cc3)s2)cc1`, the GI50 in the experiment with RXF 393 renal was 0.0666 µM; with NCI-H460 lung, 0.0408 µM; in the experiment on M14 melanoma, 0.0378 µM; with SW-620 colon, 0.0449 µM; in the experiment with SK-MEL-28 melanoma it was 2.16 µM; in the experiment on SF-295 CNS, 0.0614 µM. In addition, the GI50 with KM12 colon is 0.0408 µM; in the experiment on NCI/ADR-RES ovarian, 0.0511 µM; in the experiment on NCI-H522 lung it was 0.0874 µM; with U251 CNS, 0.0686 µM. The TGI was 3.18 µM with RXF 393 renal; over 32.6 µM with NCI-H460 lung; over 100 µM in the experiment on M14 melanoma; over 100 µM in the experiment on SW-620 colon; over 100 µM in the experiment on SK-MEL-28 melanoma; 2.03 µM with SF-295 CNS. Also, the TGI was 6.2 µM in the experiment on KM12 colon, over 100 µM with NCI/ADR-RES ovarian, over 100 µM in the experiment with NCI-H522 lung and over 89.1 µM in the experiment on U251 CNS.

For the molecule `CC(C)(C)c1ccc(C(=O)N/N=C/c2ccc(O)cc2O)cc1`, the GI50 is 1.61 µM in the experiment with RXF 393 renal; 0.32 µM with NCI-H460 lung; 0.409 µM with M14 melanoma; 0.62 µM in the experiment on SW-620 colon; 0.595 µM in the experiment with SK-MEL-28 melanoma; 0.327 µM with SF-295 CNS. In addition, the GI50 was 0.418 µM in the experiment with KM12 colon, 0.351 µM in the experiment with NCI/ADR-RES ovarian, 1.2 µM with NCI-H522 lung and 0.483 µM with U251 CNS. The TGI in the experiment with RXF 393 renal worked out at 12.2 µM; with NCI-H460 lung it was 1.88 µM; in the experiment on M14 melanoma, 9.83 µM; in the experiment on SW-620 colon it was 13.1 µM; with SK-MEL-28 melanoma, 13.9 µM; with SF-295 CNS, 3.22 µM. For the same molecule, the TGI worked out at 2.48 µM in the experiment on KM12 colon, 19.3 µM in the experiment on NCI/ADR-RES ovarian, 14 µM in the experiment on NCI-H522 lung and 14.9 µM in the experiment on U251 CNS.

As to `C[C@@H]1CN(Cc2ccc(/C=C/c3n[nH]c4ccc5nc(-c6cn[nH]c6C(F)(F)F)c6c(c5c34)CCCC6)cc2)C[C@H](C)O1`, the GI50 is 1.85 µM in the experiment on RXF 393 renal; 1.35 µM in the experiment with NCI-H460 lung; 3.19 µM with M14 melanoma; 2.02 µM with SW-620 colon; 7.11 µM in the experiment on SK-MEL-28 melanoma; 3.35 µM in the experiment on SF-295 CNS. Also, the GI50 in the experiment with KM12 colon was 2.03 µM; in the experiment on NCI/ADR-RES ovarian, 4.76 µM; with NCI-H522 lung, 2.02 µM; with U251 CNS, 5.45 µM. Further, the TGI in the experiment with RXF 393 renal turned out to be 5.79 µM; in the experiment with NCI-H460 lung, 10.2 µM; in the experiment with M14 melanoma, 14.6 µM; in the experiment with SW-620 colon, 10.1 µM; with SK-MEL-28 melanoma, 21.2 µM; with SF-295 CNS it was 18.1 µM. Also, the TGI in the experiment on KM12 colon worked out at 14.3 µM; with NCI/ADR-RES ovarian it was 19.9 µM; with NCI-H522 lung, 16.2 µM; in the experiment with U251 CNS, 19.5 µM.

Regarding `c1ccc(-c2n(Cc3ccc4ccccc4n3)c3ccccc3[n+]2Cc2ccc3ccccc3n2)cc1`, the GI50 with RXF 393 renal was 0.304 µM; with NCI-H460 lung, 0.367 µM; in the experiment on M14 melanoma, 0.289 µM; with SW-620 colon, 0.359 µM; with SK-MEL-28 melanoma, 0.359 µM; in the experiment on SF-295 CNS, 0.358 µM. Further, the GI50 was 0.344 µM with KM12 colon, 13.6 µM in the experiment with NCI/ADR-RES ovarian, 0.356 µM in the experiment on NCI-H522 lung and 0.243 µM with U251 CNS. For the same molecule, the TGI in the experiment with RXF 393 renal was determined as 1.54 µM; with NCI-H460 lung it was 1.36 µM; in the experiment with M14 melanoma it was 1.43 µM; with SW-620 colon, 1.69 µM; in the experiment with SK-MEL-28 melanoma, 1.44 µM; in the experiment with SF-295 CNS it was 1.39 µM. Besides, the TGI is 1.3 µM with KM12 colon, over 55.6 µM in the experiment with NCI/ADR-RES ovarian, 1.69 µM in the experiment with NCI-H522 lung and 1.19 µM in the experiment on U251 CNS.

Turning to `Clc1ccccc1-c1nc2ccccc2[nH]1`, the GI50 in the experiment with RXF 393 renal was over 100 µM; in the experiment with NCI-H460 lung it was over 100 µM; with M14 melanoma, over 100 µM; in the experiment with SW-620 colon, over 100 µM; in the experiment on SK-MEL-28 melanoma, over 100 µM; in the experiment with SF-295 CNS, 43.3 µM. In addition, the GI50 with KM12 colon is 85.2 µM; with NCI/ADR-RES ovarian, over 100 µM; in the experiment with NCI-H522 lung, over 100 µM; with U251 CNS, over 100 µM. For the same molecule, the TGI with RXF 393 renal, in the experiment on NCI-H460 lung, with M14 melanoma, in the experiment with SW-620 colon, in the experiment on SK-MEL-28 melanoma and in the experiment with SF-295 CNS was over 100 µM throughout. Also, the TGI in the experiment on KM12 colon, in the experiment on NCI/ADR-RES ovarian, in the experiment on NCI-H522 lung and with U251 CNS was over 100 µM each time.

In the case of `O=C1OCC2=C1C(c1cccc(F)c1)c1cc3c(cc1N2CCO)OCCO3` (stereo not given), the GI50 was 0.141 µM in the experiment with RXF 393 renal; 0.187 µM in the experiment on NCI-H460 lung; 0.105 µM in the experiment with M14 melanoma; 0.186 µM in the experiment on SW-620 colon; 1.5 µM in the experiment with SK-MEL-28 melanoma; 0.134 µM in the experiment with SF-295 CNS. For the same molecule, the GI50 was 0.172 µM in the experiment on KM12 colon, 0.208 µM in the experiment on NCI/ADR-RES ovarian, 0.0418 µM in the experiment on NCI-H522 lung and 0.221 µM with U251 CNS. The TGI in the experiment with RXF 393 renal, in the experiment on NCI-H460 lung, with M14 melanoma, in the experiment with SW-620 colon, with SK-MEL-28 melanoma and in the experiment with SF-295 CNS was over 50 µM each time. The TGI is over 50 µM in the experiment with KM12 colon, over 50 µM with NCI/ADR-RES ovarian, 2.58 µM with NCI-H522 lung and over 50 µM with U251 CNS.

For `CC(=O)NNC(=O)c1nn(-c2ccc(Cl)cc2)cc1OC(C)=O`, the GI50 in the experiment with RXF 393 renal is 16.9 µM; with NCI-H460 lung it was 5.76 µM; in the experiment with M14 melanoma, 14.2 µM; in the experiment on SW-620 colon, 23.6 µM; in the experiment with SK-MEL-28 melanoma it was over 56.7 µM; in the experiment with SF-295 CNS it was 15.9 µM. Besides, the GI50 with KM12 colon is 43.7 µM; with NCI/ADR-RES ovarian, 17 µM; in the experiment with NCI-H522 lung, 35.5 µM; in the experiment with U251 CNS it was 11.8 µM. Besides, the TGI is over 83.2 µM with RXF 393 renal; over 100 µM in the experiment with NCI-H460 lung; 49.7 µM with M14 melanoma; over 100 µM in the experiment on SW-620 colon; over 100 µM in the experiment with SK-MEL-28 melanoma; over 100 µM in the experiment on SF-295 CNS. In addition, the TGI with KM12 colon was over 100 µM; in the experiment with NCI/ADR-RES ovarian it was 69.7 µM; in the experiment with NCI-H522 lung, over 100 µM; in the experiment on U251 CNS it was over 100 µM.

For the molecule `COc1cc2c(cc1OCCCCC(=O)Nc1ccc(-c3nc4ccccc4s3)cc1)N=C[C@@H]1CCCN1C2=O`, the GI50 was 1.61 µM with RXF 393 renal; 1.67 µM in the experiment on NCI-H460 lung; 1.55 µM with M14 melanoma; 1.64 µM in the experiment with SW-620 colon; 2.23 µM with SK-MEL-28 melanoma; 0.556 µM in the experiment with SF-295 CNS. For the same molecule, the GI50 is 2.94 µM in the experiment on KM12 colon, 10.9 µM in the experiment with NCI/ADR-RES ovarian, 0.972 µM in the experiment with NCI-H522 lung and 1.9 µM in the experiment with U251 CNS. Further, the TGI was 3.05 µM in the experiment with RXF 393 renal; 3.6 µM with NCI-H460 lung; 3.18 µM with M14 melanoma; 4.03 µM in the experiment on SW-620 colon; 5.81 µM in the experiment with SK-MEL-28 melanoma; 3.37 µM in the experiment with SF-295 CNS. In addition, the TGI with KM12 colon was 12.4 µM; in the experiment with NCI/ADR-RES ovarian, 62.6 µM; in the experiment with NCI-H522 lung, 2.65 µM; with U251 CNS, 6.63 µM.
